Test results published in the supplement of paper PMC10307832.

These cell lines were tested with COC1=C(C=C(C=C1)C2=CC3=NC=CN3C(=N2)NC4=C(C=CC=N4)C(=O)N)OC [BAY61-3606] + CCNC(=O)c1noc(-c2cc(C(C)C)c(O)cc2O)c1-c1ccc(CN2CCOCC2)cc1 [Luminespib] (partner 0.01 µM) (assay: relative viability (nuclei count vs DMSO), 5 days (fraction); higher = more cells survive). Details: first compound 0.02 µM.
Procedure, shortened: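 Relative viability equals treated-well nuclei counts divided by vehicle-well nuclei counts. Counts came from 4× images of lung cancer cell lines grown in 1536-well plates for 5 days after pin-tool dosing on the day after seeding. Dosing used one drug alone or a fixed anchor-drug dose plus five library-drug doses (not always all listed) in √10 steps, and values are medians of duplicate plates.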

Cell Line	relative viability
BEN	0.464
HARA	0.672
SW 900	0.172
HCC-827	0.492
NCI-H520	0.216
LOU-NH91	0.375
NCI-H2023	0.885
A-427	0.842
NCI-H647	0.205
NCI-H1755	0.367
NCI-H650	0.925
NCI-H3122	0.121
NCI-H441	0.258
NCI-H1395	0.849
201T	1.11
NCI-H1975	0.18

Cell Line	relative viability
HOP-62	0.919
NCI-H2405	0.736
NCI-H1355	0.736
NCI-H838	0.368
CAL-12T	0.49
NCI-H1666	1.12
EPLC-272H	0.33
NCI-H2347	0.373
NCI-H1915	0.777
NCI-H1437	1.14
NCI-H460	0.0381
NCI-H2085	0.416
HCC-15	0.412
NCI-H1944	0.802
EKVX	0.999

Same assay, conditions: first compound 0.06325 µM

Cell Line	relative viability
BEN	0.349
HARA	0.462
SW 900	0.188
HCC-827	0.587
NCI-H520	0.237
LOU-NH91	0.294
NCI-H2023	0.614
A-427	0.928
NCI-H647	0.16
PC-3 [JPC-3]	0.81
NCI-H1755	0.495
NCI-H650	0.751
NCI-H3122	0.0764
NCI-H441	0.31
NCI-H1395	0.595
201T	1.03

Cell Line	relative viability
NCI-H1975	0.199
HOP-62	1.07
NCI-H2405	0.569
NCI-H1355	0.657
NCI-H838	0.24
CAL-12T	0.439
NCI-H1666	0.998
EPLC-272H	0.424
NCI-H2347	0.362
NCI-H1915	0.86
NCI-H1437	1.15
NCI-H460	0.0387
NCI-H2085	0.469
HCC-15	0.302
NCI-H1944	0.674
EKVX	0.927

Same assay, conditions: first compound 0.2 µM

Cell Line	relative viability
BEN	0.253
HARA	0.681
SW 900	0.179
HCC-827	0.572
NCI-H520	0.258
LOU-NH91	0.396
NCI-H2023	0.669
A-427	0.86
NCI-H647	0.21
PC-3 [JPC-3]	0.746
NCI-H1755	0.397
NCI-H650	0.766
NCI-H3122	0.0868
NCI-H441	0.369
NCI-H1395	0.733
201T	1.04

Cell Line	relative viability
NCI-H1975	0.268
HOP-62	0.83
NCI-H2405	0.716
NCI-H1355	0.694
NCI-H838	0.347
CAL-12T	0.209
NCI-H1666	1.13
EPLC-272H	0.801
NCI-H2347	0.386
NCI-H1915	0.686
NCI-H1437	1
NCI-H460	0.0289
NCI-H2085	0.486
HCC-15	0.303
NCI-H1944	0.734
EKVX	0.844

Same assay, conditions: first compound 0.6325 µM

Cell Line	relative viability
BEN	0.321
HARA	0.682
SW 900	0.219
HCC-827	0.743
NCI-H520	0.231
LOU-NH91	0.379
NCI-H2023	0.778
A-427	0.965
NCI-H647	0.221
PC-3 [JPC-3]	0.659
NCI-H1755	0.433
NCI-H650	0.927
NCI-H3122	0.099
NCI-H441	0.335
NCI-H1395	0.568
201T	1.16

Cell Line	relative viability
NCI-H1975	0.247
HOP-62	0.933
NCI-H2405	0.739
NCI-H1355	0.727
NCI-H838	0.259
CAL-12T	0.789
NCI-H1666	1.08
EPLC-272H	0.131
NCI-H2347	0.658
NCI-H1915	0.731
NCI-H1437	1.19
NCI-H460	0.0296
NCI-H2085	0.443
HCC-15	0.263
NCI-H1944	0.688
EKVX	0.897

Same assay, conditions: first compound 2 µM

Cell Line	relative viability
BEN	0.407
HARA	0.352
SW 900	0.162
HCC-827	0.31
NCI-H520	0.223
LOU-NH91	0.317
NCI-H2023	0.535
A-427	0.808
NCI-H647	0.0962
PC-3 [JPC-3]	0.709
NCI-H1755	0.384
NCI-H650	0.652
NCI-H3122	0.0933
NCI-H441	0.302
NCI-H1395	0.546
201T	1.05

Cell Line	relative viability
NCI-H1975	0.119
HOP-62	0.651
NCI-H2405	0.485
NCI-H1355	0.413
NCI-H838	0.28
CAL-12T	0.187
NCI-H1666	1.05
EPLC-272H	0.138
NCI-H2347	0.412
NCI-H1915	0.369
NCI-H1437	1.04
NCI-H460	0.0322
NCI-H2085	0.412
HCC-15	0.377
NCI-H1944	0.282
